Assay results as given in the supplement of paper PMC10307832.

These cell lines were tested with COc1cc([C@@H]2c3cc4c(cc3[C@@H](O[C@@H]3O[C@@H]5CO[C@@H](C)O[C@H]5[C@H](O)[C@H]3O)[C@H]3COC(=O)[C@H]23)OCO4)cc(OC)c1O [Etoposide] + NC(=O)Nc1cc(-c2cccc(F)c2)sc1C(=O)N[C@H]1CCCNC1 [AZD7762] (partner 0.2 µM) (assay: relative viability (nuclei count vs DMSO), 5 days (fraction); higher = more cells survive). Conditions: first compound 0.01 µM.
Procedure, shortened: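 For relative viability, nuclei counts in treated wells were divided by those in vehicle wells. Lung cancer cell lines had been pin-tool dosed in 1536-well plates the day after seeding and cultured for 5 days, then fixed and stained in one step (final 0.05% Triton X-100, 1% formaldehyde, 1 ug/ml Hoechst) and imaged at 4×. Doses were one drug alone or a fixed anchor-drug dose plus five library-drug doses (not always all listed) in √10 steps, and values are duplicate-plate medians.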

| Cell Line | relative viability |
| --- | --- |
| LOU-NH91 | 0.784 |
| ChaGo-K-1 | 0.859 |
| NCI-H2170 | 0.721 |
| NCI-H3122 | 0.998 |
| HOP-62 | 0.486 |
| HCC-44 | 1.02 |
| LU99A | 0.424 |
| BEN | 0.828 |
| HARA | 0.436 |
| HCC-78 | 0.808 |
| NCI-H441 | 1.31 |
| LCLC-97TM1 | 0.226 |
| A-427 | 0.713 |
| NCI-H460 | 0.61 |
| NCI-H727 | 0.647 |
| NCI-H1734 | 0.561 |
| NCI-H2405 | 0.754 |
| NCI-H1395 | 0.423 |
| 201T | 0.612 |
| NCI-H1915 | 0.66 |
| HCC-827 | 0.206 |
| LXF-289 | 1.07 |
| NCI-H2347 | 0.685 |
| NCI-H650 | 0.859 |
| NCI-H1651 | 0.476 |
| EPLC-272H | 0.272 |
| NCI-H23 | 0.246 |
| NCI-H1792 | 0.485 |
| NCI-H1355 | 0.746 |
| NCI-H322M | 0.473 |

Same assay, conditions: first compound 0.03162 µM

| Cell Line | relative viability |
| --- | --- |
| LOU-NH91 | 0.836 |
| ChaGo-K-1 | 0.863 |
| NCI-H2170 | 0.882 |
| NCI-H3122 | 0.998 |
| HOP-62 | 0.634 |
| HCC-44 | 1.05 |
| LU99A | 0.351 |
| BEN | 0.818 |
| HARA | 0.347 |
| HCC-78 | 0.771 |
| NCI-H441 | 0.966 |
| LCLC-97TM1 | 0.323 |
| A-427 | 0.741 |
| NCI-H460 | 0.704 |
| NCI-H727 | 0.582 |
| NCI-H1734 | 0.538 |
| NCI-H2405 | 0.765 |
| NCI-H1395 | 0.435 |
| 201T | 0.751 |
| NCI-H1915 | 0.777 |
| HCC-827 | 0.223 |
| LXF-289 | 1.1 |
| NCI-H2347 | 0.828 |
| NCI-H650 | 0.977 |
| NCI-H1651 | 0.508 |
| EPLC-272H | 0.269 |
| NCI-H23 | 0.307 |
| NCI-H1792 | 0.661 |
| NCI-H1355 | 0.862 |
| NCI-H322M | 0.562 |

Same assay, conditions: first compound 0.1 µM

| Cell Line | relative viability |
| --- | --- |
| LOU-NH91 | 0.67 |
| ChaGo-K-1 | 0.863 |
| NCI-H3122 | 0.834 |
| HOP-62 | 0.284 |
| HCC-44 | 1.15 |
| LU99A | 0.17 |
| HARA | 0.236 |
| HCC-78 | 0.392 |
| NCI-H441 | 1.1 |
| LCLC-97TM1 | 0.173 |
| A-427 | 0.569 |
| NCI-H460 | 0.407 |
| NCI-H727 | 0.405 |
| NCI-H1734 | 0.333 |
| NCI-H2405 | 0.728 |
| NCI-H1395 | 0.4 |
| 201T | 0.47 |
| NCI-H1915 | 0.697 |
| HCC-827 | 0.185 |
| LXF-289 | 1.23 |
| NCI-H2347 | 0.311 |
| NCI-H650 | 0.563 |
| NCI-H1651 | 0.287 |
| EPLC-272H | 0.183 |
| NCI-H23 | 0.187 |
| NCI-H1355 | 0.501 |
| NCI-H322M | 0.47 |

Same assay, conditions: first compound 0.3162 µM

| Cell Line | relative viability |
| --- | --- |
| LOU-NH91 | 0.656 |
| ChaGo-K-1 | 0.69 |
| NCI-H2170 | 0.881 |
| NCI-H3122 | 0.607 |
| HOP-62 | 0.329 |
| HCC-44 | 1.01 |
| LU99A | 0.175 |
| BEN | 0.665 |
| HARA | 0.301 |
| HCC-78 | 0.658 |
| NCI-H441 | 0.512 |
| LCLC-97TM1 | 0.15 |
| A-427 | 0.473 |
| NCI-H460 | 0.0776 |
| NCI-H727 | 0.527 |
| NCI-H1734 | 0.306 |
| NCI-H2405 | 0.638 |
| NCI-H1395 | 0.375 |
| 201T | 0.492 |
| NCI-H1915 | 0.648 |
| HCC-827 | 0.167 |
| LXF-289 | 0.892 |
| NCI-H2347 | 0.374 |
| NCI-H650 | 0.538 |
| NCI-H1651 | 0.274 |
| EPLC-272H | 0.182 |
| NCI-H23 | 0.195 |
| NCI-H1792 | 0.471 |
| NCI-H1355 | 0.586 |
| NCI-H322M | 0.502 |

Same assay, conditions: first compound 1 µM

| Cell Line | relative viability |
| --- | --- |
| LOU-NH91 | 0.482 |
| ChaGo-K-1 | 0.302 |
| NCI-H2170 | 0.482 |
| NCI-H3122 | 0.181 |
| HOP-62 | 0.24 |
| HCC-44 | 0.95 |
| LU99A | 0.117 |
| BEN | 0.606 |
| HARA | 0.291 |
| HCC-78 | 0.409 |
| NCI-H441 | 0.4 |
| LCLC-97TM1 | 0.099 |
| A-427 | 0.286 |
| NCI-H460 | 0.0538 |
| NCI-H727 | 0.579 |
| NCI-H1734 | 0.19 |
| NCI-H2405 | 0.317 |
| NCI-H1395 | 0.362 |
| 201T | 0.37 |
| NCI-H1915 | 0.527 |
| HCC-827 | 0.177 |
| LXF-289 | 0.4 |
| NCI-H2347 | 0.367 |
| NCI-H650 | 0.207 |
| NCI-H1651 | 0.186 |
| EPLC-272H | 0.0802 |
| NCI-H23 | 0.172 |
| NCI-H1792 | 0.122 |
| NCI-H1355 | 0.305 |
| NCI-H322M | 0.473 |
